# Assay results taken from patent publication US9758485B2, “Compounds for controlling arthropods” (priority 2013, dated 2017).
# Tested on: not listed separately
# Experiment: logP determination by HPLC on a reversed-phase column (C18), EEC Directive 79/831 Annex V.A8
# Type: physicochemical
# Conditions: HPLC-MS, reversed-phase column (C18)
row,SMILES,log P
1,N#CC1(NC(=O)c2cc(-c3cnn(-c4c(Cl)cc(C(F)(F)F)cc4Cl)c3)cnc2Cl)CC1 [I-T3-95],3.1
2,CN(C(=O)c1cc(-c2cnn(-c3c(Cl)cc(C(F)(C(F)(F)F)C(F)(F)F)cc3Cl)c2)cnc1Cl)C1CC1 [I-T3-100],4.4
3,Cc1cc(C(F)(C(F)(F)F)C(F)(F)F)cc(C)c1-n1cc(-c2cnc(Cl)c(C(=O)N(C)C3CC3)c2)cn1 [I-T3-101],4.4
4,CN(C(=O)c1cc(-c2cnn(-c3c(Cl)cc(C(F)(C(F)(F)F)C(F)(F)F)cc3Cl)c2)cnc1Cl)C1(C#N)CC1 [I-T3-102],4.3

# Tested on: Ctenocephalides felis
# Experiment: Ctenocephalides felis - in vitro contact tests with adult cat fleas
# Type: in vivo
# Conditions: application rate 5 μg/cm^2 (=500 g/ha), after 48 h (dead or moribund)
# Description: Ctenocephalides felis—In Vitro Contact Tests with Adult Cat Fleas
# For the coating of the test tubes, 9 mg of active ingredient are first dissolved in 1 ml of acetone p.a. and then diluted to the desired concentration with acetone p.a. 250 μl of the solution are distributed homogeneously on the inner walls and base of a 25 ml test tube by turning and rocking on an orbital shaker (rocking rotation at 30 rpm for 2 h). With 900 ppm active ingredient solution and internal surface area 44.7 cm^2, given homogeneous distribution, an area-based dose of 5 μg/cm^2 is achieved.
# After the solvent has evaporated off, the tubes are populated with 5-10 adult cat fleas (Ctenocephalides felis), sealed with a perforated plastic lid and incubated in a horizontal position at room temperature and ambient humidity. After 48 h, efficacy is determined. To this end, the test tubes are stood upright and the fleas are knocked to the base of the tube. Fleas which remain motionless at the base or move in an uncoordinated manner are considered to be dead or moribund.
# 100% efficacy means that all the fleas were dead or moribund. 0% efficacy means that no fleas were harmed.
row,SMILES,efficacy [%]
1,N#CC1(NC(=O)c2cc(-c3cnn(-c4c(Cl)cc(C(F)(F)F)cc4Cl)c3)cnc2Cl)CC1 [I-T3-95],100
2,CN(C(=O)c1cc(-c2cnn(-c3c(Cl)cc(C(F)(C(F)(F)F)C(F)(F)F)cc3Cl)c2)cnc1Cl)C1CC1 [I-T3-100],100
3,Cc1cc(C(F)(C(F)(F)F)C(F)(F)F)cc(C)c1-n1cc(-c2cnc(Cl)c(C(=O)N(C)C3CC3)c2)cn1 [I-T3-101],100
4,CN(C(=O)c1cc(-c2cnn(-c3c(Cl)cc(C(F)(C(F)(F)F)C(F)(F)F)cc3Cl)c2)cnc1Cl)C1(C#N)CC1 [I-T3-102],100

# Tested on: Amblyomma hebraeum
# Experiment: Amblyomma hebraeum test (tick nymphs, immersion)
# Type: in vivo
# Conditions: application rate 100 ppm; tick nymphs immersed for one minute; kill after 42 days
# Description: (§1) Solvent: dimethyl sulphoxide
# To produce an appropriate active ingredient formulation, 10 mg of active ingredient are mixed with 0.5 ml of dimethyl sulphoxide, and the concentrate is diluted with water to the desired concentration.
# Tick nymphs (Amblyomma hebraeum) are placed into perforated plastic beakers and immersed in the desired concentration for one minute. The ticks are transferred on filter paper into a Petri dish and stored in a climate-controlled cabinet.
# After 42 days, the kill in % is determined. 100% means that all of the ticks have been killed; 0% means that none of the ticks have been killed.
row,SMILES,efficacy [%]
1,N#CC1(NC(=O)c2cc(-c3cnn(-c4c(Cl)cc(C(F)(F)F)cc4Cl)c3)cnc2Cl)CC1 [I-T3-95],100
2,CN(C(=O)c1cc(-c2cnn(-c3c(Cl)cc(C(F)(C(F)(F)F)C(F)(F)F)cc3Cl)c2)cnc1Cl)C1CC1 [I-T3-100],100
3,Cc1cc(C(F)(C(F)(F)F)C(F)(F)F)cc(C)c1-n1cc(-c2cnc(Cl)c(C(=O)N(C)C3CC3)c2)cn1 [I-T3-101],95
4,CN(C(=O)c1cc(-c2cnn(-c3c(Cl)cc(C(F)(C(F)(F)F)C(F)(F)F)cc3Cl)c2)cnc1Cl)C1(C#N)CC1 [I-T3-102],90

# Tested on: Boophilus microplus
# Experiment: Boophilus microplus - injection test
# Type: in vivo
# Conditions: application rate 20 μg/animal; injected into engorged adult female ticks; laying of fertile eggs, after 7 days
# Outline: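 Compound dissolved in DMSO (10 mg per 0.5 ml, then diluted with DMSO to test concentration); 1 μl injected into the abdomen of 5 engorged adult female ticks, which are then held in a climate-controlled room. Efficacy judged after 7 days by laying of fertile eggs.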
row,SMILES,efficacy [%]
1,N#CC1(NC(=O)c2cc(-c3cnn(-c4c(Cl)cc(C(F)(F)F)cc4Cl)c3)cnc2Cl)CC1 [I-T3-95],100
2,CN(C(=O)c1cc(-c2cnn(-c3c(Cl)cc(C(F)(C(F)(F)F)C(F)(F)F)cc3Cl)c2)cnc1Cl)C1CC1 [I-T3-100],100
3,Cc1cc(C(F)(C(F)(F)F)C(F)(F)F)cc(C)c1-n1cc(-c2cnc(Cl)c(C(=O)N(C)C3CC3)c2)cn1 [I-T3-101],100
4,CN(C(=O)c1cc(-c2cnn(-c3c(Cl)cc(C(F)(C(F)(F)F)C(F)(F)F)cc3Cl)c2)cnc1Cl)C1(C#N)CC1 [I-T3-102],100

# Tested on: Boophilus microplus Parkhurst strain, SP-resistant
# Experiment: Boophilus microplus - dip test
# Type: in vivo
# Conditions: application rate 100 ppm; dip of engorged adult female ticks; laying of fertile eggs, after 7 days
# Description: Boophilus microplus—Dip Test
# Test animals: cattle ticks (Boophilus microplus) Parkhurst strain, SP-resistant
# as §1
# 10 mg of active ingredient are dissolved in 0.5 ml of dimethyl sulphoxide. For the purpose of producing a suitable formulation, the active ingredient solution is diluted with water to the concentration desired in each case.
# This active ingredient formulation is pipetted into tubes. 8-10 adult engorged female cattle ticks (Boophilus microplus) are transferred into a further tube with holes. The tube is immersed into the active ingredient formulation, and all the ticks are completely wetted. After the liquid has run out, the ticks are transferred on filter discs into plastic dishes and stored in a climate-controlled room.
# Efficacy is assessed after 7 days by laying of fertile eggs. Eggs which are not visibly fertile are stored in a climate-controlled cabinet until the larvae hatch after about 42 days. An efficacy of 100% means that none of the ticks has laid any fertile eggs; 0% means that all the eggs are fertile.
row,SMILES,efficacy [%]
1,N#CC1(NC(=O)c2cc(-c3cnn(-c4c(Cl)cc(C(F)(F)F)cc4Cl)c3)cnc2Cl)CC1 [I-T3-95],100
2,CN(C(=O)c1cc(-c2cnn(-c3c(Cl)cc(C(F)(C(F)(F)F)C(F)(F)F)cc3Cl)c2)cnc1Cl)C1CC1 [I-T3-100],100
3,Cc1cc(C(F)(C(F)(F)F)C(F)(F)F)cc(C)c1-n1cc(-c2cnc(Cl)c(C(=O)N(C)C3CC3)c2)cn1 [I-T3-101],100
4,CN(C(=O)c1cc(-c2cnn(-c3c(Cl)cc(C(F)(C(F)(F)F)C(F)(F)F)cc3Cl)c2)cnc1Cl)C1(C#N)CC1 [I-T3-102],100

# Tested on: Ctenocephalides felis
# Experiment: Ctenocephalides felis - oral test
# Type: in vivo
# Conditions: application rate 100 ppm in citrated cattle blood; adult fleas; kill after 2 days
# Outline: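 Oral exposure of unfed adult fleas, roughly 20 per chamber, to compound-spiked citrated cattle blood taken up across a parafilm membrane. Read-out is percent kill at 2 days, where 100% means every flea dead.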
row,SMILES,efficacy [%]
1,N#CC1(NC(=O)c2cc(-c3cnn(-c4c(Cl)cc(C(F)(F)F)cc4Cl)c3)cnc2Cl)CC1 [I-T3-95],100
2,CN(C(=O)c1cc(-c2cnn(-c3c(Cl)cc(C(F)(C(F)(F)F)C(F)(F)F)cc3Cl)c2)cnc1Cl)C1CC1 [I-T3-100],100
3,Cc1cc(C(F)(C(F)(F)F)C(F)(F)F)cc(C)c1-n1cc(-c2cnc(Cl)c(C(=O)N(C)C3CC3)c2)cn1 [I-T3-101],100
4,CN(C(=O)c1cc(-c2cnn(-c3c(Cl)cc(C(F)(C(F)(F)F)C(F)(F)F)cc3Cl)c2)cnc1Cl)C1(C#N)CC1 [I-T3-102],100

# Tested on: Lucilia cuprina
# Experiment: Lucilia cuprina test
# Type: in vivo
# Conditions: application rate 100 ppm; L1 larvae in minced horsemeat; kill after 2 days
# Outline: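 About 20 L1 larvae placed on minced horsemeat treated with compound, formulated in DMSO and diluted with water to test concentration. Kill in % scored after 2 days (100% = all larvae dead, 0% = none).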
row,SMILES,efficacy [%]
1,CN(C(=O)c1cc(-c2cnn(-c3c(Cl)cc(C(F)(C(F)(F)F)C(F)(F)F)cc3Cl)c2)cnc1Cl)C1CC1 [I-T3-100],100
2,Cc1cc(C(F)(C(F)(F)F)C(F)(F)F)cc(C)c1-n1cc(-c2cnc(Cl)c(C(=O)N(C)C3CC3)c2)cn1 [I-T3-101],100
3,CN(C(=O)c1cc(-c2cnn(-c3c(Cl)cc(C(F)(C(F)(F)F)C(F)(F)F)cc3Cl)c2)cnc1Cl)C1(C#N)CC1 [I-T3-102],100

# Tested on: Musca domestica
# Experiment: Musca domestica test
# Type: in vivo
# Conditions: application rate 100 ppm; adult houseflies; kill after 2 days
# Outline: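 Feeding exposure: adult Musca domestica, 10 per vessel, given a sponge with sugar solution and test formulation at the desired concentration; % mortality determined on day 2.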
row,SMILES,efficacy [%]
1,CN(C(=O)c1cc(-c2cnn(-c3c(Cl)cc(C(F)(C(F)(F)F)C(F)(F)F)cc3Cl)c2)cnc1Cl)C1CC1 [I-T3-100],100
2,Cc1cc(C(F)(C(F)(F)F)C(F)(F)F)cc(C)c1-n1cc(-c2cnc(Cl)c(C(=O)N(C)C3CC3)c2)cn1 [I-T3-101],100
3,CN(C(=O)c1cc(-c2cnn(-c3c(Cl)cc(C(F)(C(F)(F)F)C(F)(F)F)cc3Cl)c2)cnc1Cl)C1(C#N)CC1 [I-T3-102],100
